“And” between values parts separate entries of the source, which are not always exact repeats. Identical values can stand only once.
What was measured:
Slc:ICR mice = assay: Acute toxicity test in mice (LD50, Miller-Tainter method); assay type: in vivo; conditions: intraperitoneal, Slc:ICR mice (male), death rate on the 14th day
Experimental: Platinum complexes to be tested was administered intraperitoneally to Slc:ICR mice (male, 5 weeks old, 6 mice/group). Each complex was used in the form of a solution or suspension in a 0.05% "Tween 80" in saline. The LD50 value was calculated by the Miller-Tainter method from the death rate on the 14th day from the date of the administration.

[1] = test system: L1210 murine leukemia cells; assay: Antitumor activity against L1210 leukemia in mice; assay type: in vivo, CDF1 mice; conditions: for Survival days (mean ± SD) / T/C (%): given on 1st, 5th and 9th days after tumor inoculation; for Survival rate: number of 30 days survival mice / group
Experimental: L1210 murine leukemia cells which were subcultured in DBA/2 mouse were inoculated intraperitoneally into CDF1 mice at 10^5 cells/mouse. Each experimental group was composed of 6-10 mice (male, 6-weeks old). Each test compound was administered three times, i.e., on the 1st, 5th and 9th days after tumor inoculation. […] Each compound was dissolved or suspended in 0.05% "Tween 80" solution and administered in mice.

2-Furanacrylate-hydroxo(trans-i-dach)platinum(II) [XXXI-3]
LD50 values (Slc:ICR mice): >200 mg/kg

2-Propenylacrylate-hydroxo(trans-ℓ-dach)platinum(II) [XXXI-2]
LD50 values (Slc:ICR mice): >200 mg/kg

CC(=O)N1c2ccccc2CC1C(=O)[O-].CC(=O)N1c2ccccc2CC1C(=O)[O-].NC1CCCCC1N.[Pt+2] (racemic) [XXIII-2, Bis(DL-1-acetylindoline-2-carboxylato)(trans-ℓ-dach)platinum(II)]
Survival days (mean ± SD) ([1]; Dose 1 mg/kg): 8.3 ± 0.5 days | T/C (%) ([1]; Dose 1 mg/kg): 102% | Survival rate ([1]; Dose 1 mg/kg): 0/6 | Survival days (mean ± SD) ([1]; Dose 10 mg/kg): 12.7 ± 8.6 days | T/C (%) ([1]; Dose 10 mg/kg): 157% | Survival rate ([1]; Dose 10 mg/kg): 1/6 | Survival days (mean ± SD) ([1]; Dose 25 mg/kg): 14.2 ± 3.3 days | T/C (%) ([1]; Dose 25 mg/kg): 175% | Survival rate ([1]; Dose 25 mg/kg): 0/6 | Survival days (mean ± SD) ([1]; Dose 50 mg/kg): 13.3 ± 6.1 days | T/C (%) ([1]; Dose 50 mg/kg): 164% | Survival rate ([1]; Dose 50 mg/kg): 0/6 | Survival days (mean ± SD) ([1]; Dose 100 mg/kg): 22.2 ± 9.0 days | T/C (%) ([1]; Dose 100 mg/kg): 274% | Survival rate ([1]; Dose 100 mg/kg): 3/6 | Survival days (mean ± SD) ([1]; Dose 200 mg/kg): 14.0 ± 2.4 days | T/C (%) ([1]; Dose 200 mg/kg): 173% | Survival rate ([1]; Dose 200 mg/kg): 0/6 | LD50 values (Slc:ICR mice): >200 mg/kg

NC1CCCCC1N.O=C([O-])C1CCCO1.O=C([O-])C1CCCO1.[Pt+2] (racemic) [XXIV-2, Bis(DL-2-tetrahydrofurancarboxylato)(trans-ℓ-dach)-platinum(II)]
Survival days (mean ± SD) ([1]; Dose 1 mg/kg): 11.5 ± 1.9 days | T/C (%) ([1]; Dose 1 mg/kg): 135% | Survival rate ([1]; Dose 1 mg/kg): 0/6 | Survival days (mean ± SD) ([1]; Dose 10 mg/kg): 20.3 ± 2.7 days | T/C (%) ([1]; Dose 10 mg/kg): 239% | Survival rate ([1]; Dose 10 mg/kg): 0/6 | Survival days (mean ± SD) ([1]; Dose 25 mg/kg): 16.7 ± 4.3 days | T/C (%) ([1]; Dose 25 mg/kg): 196% | Survival rate ([1]; Dose 25 mg/kg): 0/6 | Survival days (mean ± SD) ([1]; Dose 50 mg/kg): 10.2 ± 1.0 days | T/C (%) ([1]; Dose 50 mg/kg): 120% | Survival rate ([1]; Dose 50 mg/kg): 0/6 | Survival days (mean ± SD) ([1]; Dose 100 mg/kg): 6.3 ± 0.8 days | T/C (%) ([1]; Dose 100 mg/kg): 74% | Survival rate ([1]; Dose 100 mg/kg): 0/6 | Survival days (mean ± SD) ([1]; Dose 200 mg/kg): 4.8 ± 1.3 days | T/C (%) ([1]; Dose 200 mg/kg): 57% | Survival rate ([1]; Dose 200 mg/kg): 0/6 | LD50 values (Slc:ICR mice): 45 mg/kg

N.N.O=C([O-])C1(C(=O)[O-])CCC1.[Pt+2] [C B D C A, cis-diammine-1,1-cyclobutanedicarboxylate platinum(II), reference compound]
Survival days (mean ± SD) ([1]; Dose 1 mg/kg): 8.3 ± 0.5 days | T/C (%) ([1]; Dose 1 mg/kg): 98% | Survival rate ([1]; Dose 1 mg/kg): 0/10 | Survival days (mean ± SD) ([1]; Dose 10 mg/kg): 9.3 ± 0.5 days | T/C (%) ([1]; Dose 10 mg/kg): 109% | Survival rate ([1]; Dose 10 mg/kg): 0/10 | Survival days (mean ± SD) ([1]; Dose 25 mg/kg): 10.1 ± 1.3 days | T/C (%) ([1]; Dose 25 mg/kg): 119% | Survival rate ([1]; Dose 25 mg/kg): 0/10 | Survival days (mean ± SD) ([1]; Dose 50 mg/kg): 13.1 ± 2.3 days | T/C (%) ([1]; Dose 50 mg/kg): 156% | Survival rate ([1]; Dose 50 mg/kg): 0/10 | Survival days (mean ± SD) ([1]; Dose 100 mg/kg): 14.1 ± 3.7 days | T/C (%) ([1]; Dose 100 mg/kg): 166% | Survival rate ([1]; Dose 100 mg/kg): 0/10 | Survival days (mean ± SD) ([1]; Dose 200 mg/kg): 9.6 ± 0.7 days | T/C (%) ([1]; Dose 200 mg/kg): 113% | Survival rate ([1]; Dose 200 mg/kg): 0/10

N.N.[Cl][Pt][Cl] [C D D P, cis-diamminedichloro platinum(II), reference compound]
Survival days (mean ± SD) ([1]; Dose 0.5 mg/kg): 18.9 ± 5.8 days | T/C (%) ([1]; Dose 0.5 mg/kg): 225% | Survival rate ([1]; Dose 0.5 mg/kg): 0/6 | Survival days (mean ± SD) ([1]; Dose 2.5 mg/kg, 2.5 mg/kg): 14.5 ± 2.5 days and 15.5 ± 1.4 days and 13.0 ± 3.1 days and 14.8 ± 2.7 days | T/C (%) ([1]; Dose 2.5 mg/kg, 2.5 mg/kg): 175% and 191% and 181% | Survival rate ([1]; Dose 2.5 mg/kg): 0/6 | Survival days (mean ± SD) ([1]; Dose 5 mg/kg, 5 mg/kg): 16.3 ± 1.2 days and 18.2 ± 0.4 days and 18.8 ± 4.3 days | T/C (%) ([1]; Dose 5 mg/kg, 5 mg/kg): 201% and 214% and 232% | Survival rate ([1]; Dose 5 mg/kg): 0/6 | Survival days (mean ± SD) ([1]; Dose 7.5 mg/kg, 7.5 mg/kg): 19.0 ± 8.7 days and 19.2 ± 3.0 days and 20.2 ± 4.8 days and 18.7 ± 3.1 days | T/C (%) ([1]; Dose 7.5 mg/kg, 7.5 mg/kg): 229% and 237% and 238% and 231% | Survival rate ([1]; Dose 7.5 mg/kg, 7.5 mg/kg): 1/6 and 0/6

CCOC(=O)CNC(=O)C=CC(=O)[O-].NC1CCCCC1N.[OH-].[Pt+2] [XXIX-1, N-(ethoxycarbonylmethyl)maleamido-hydroxo(trans-ℓ- dach)platinum(II)]
LD50 values (Slc:ICR mice): >200 mg/kg

COC(=O)C(Cc1ccccc1)NC(=O)C=CC(=O)[O-].NC1CCCCC1N.[OH-].[Pt+2] (stereo not drawn) [XXIX-2, N-(dℓ-2-phenyl-1-methoxycarbonylethyl)maleamido-hydroxo(trans-i-dach)platinum(II)]
LD50 values (Slc:ICR mice): >200 mg/kg

NC1CCCCC1N.O=C([O-])C=CC(=O)Nc1cccc(O)c1.[OH-].[Pt+2] [XXIX-4, N-(3-hydroxyphenyl)maleamido-hydroxo(trans-ℓ-dach)-platinum(II)]
LD50 values (Slc:ICR mice): 62 mg/kg

CC1(C)CC(=O)C=C(C(=O)[O-])O1.CC1(C)CC(=O)C=C(C(=O)[O-])O1.NC1CCCCC1N.[Pt+2] [XXV-1, bis(3,4-dihydro-2,2-dimethyl-4-oxo-2H-pyrane-6-carboxylato) (trans-k-dach)platinum(II)]
LD50 values (Slc:ICR mice): 192 mg/kg

NC1CCCCC1N.O=C(CN1C(=O)c2ccccc2C1=O)NCC(=O)[O][Pt][O]C(=O)CNC(=O)CN1C(=O)c2ccccc2C1=O [XXVI-1, Bis(phthaloylglycylglycinato)(trans-ℓ-dach)-platinum(II)]
LD50 values (Slc:ICR mice): >200 mg/kg

COCCOCC(=O)[O][Pt][O]C(=O)COCCOC.NC1CCCCC1N [XXVII-1, Bis(methoxyethoxymethylcarboxylato)(trans-ℓ-dach)-platinum(II)]
LD50 values (Slc:ICR mice): 50 mg/kg

O=C([O][Pt]1([O]C(=O)c2ccc(N3C(=O)C=CC3=O)cc2)[NH]C2CCCCC2[NH]1)c1ccc(N2C(=O)C=CC2=O)cc1 (stereo not drawn) [XXVIII-1, Bis[N-(4-carboxyphenyl)maleimido](trans-ℓ-dach)-platinum(II)]
LD50 values (Slc:ICR mice): 70 mg/kg

O=C(C=Cc1ccc(O)cc1)[O][Pt]1([OH])[NH]C2CCCCC2[NH]1 (stereo not drawn) [XXXI-4, β-(4-hydroxyphenyl)acrylate-hydroxo(trans-ℓ-dach)-platinum(II)]
LD50 values (Slc:ICR mice): 117 mg/kg

O=C(C=Cc1ccc(C(F)(F)F)cc1)[O][Pt]1([OH])[NH]C2CCCCC2[NH]1 (stereo not drawn) [XXXI-5, β-(4-trifluourmethylphenyl)acrylate-hydroxo(trans-ℓ-dach)platinum(II)]
LD50 values (Slc:ICR mice): >200 mg/kg

NC1CCCCC1N.O=C([O][Pt][O]C(=O)C1(O)CC(O)C(O)C(O)C1)C1(O)CC(O)C(O)C(O)C1 [XXXII-1, Bis(lR,3R,4R,5R-tetrahydroxycyclohexanecarboxylato)-(trans-ℓ-dach)platinum(II)]
LD50 values (Slc:ICR mice): >200 mg/kg

NC1CCCCC1N.O=C([O-])CCc1ccc(O)cc1.O=C([O-])CCc1ccc(O)cc1.[Pt+2] [XXXIV-1, Bis(3-(4-hydroxyphenyl)propionato)(trans-ℓ-dach)-platinum(II)]
LD50 values (Slc:ICR mice): 90 mg/kg

CC1(C(=O)[O][Pt][O]C(=O)C2(C)CCC3(C)CCC4(C)C(=CC(=O)C5C6(C)CCC(O)C(C)(C)C6CCC54C)C3C2)CCC2(C)CCC3(C)C(=CC(=O)C4C5(C)CCC(O)C(C)(C)C5CCC43C)C2C1.NC1CCCCC1N.O.O.O.O (stereo not drawn) [XXXV-1, Bis(β-glycyrrhetinato)(trans-ℓ-dach)platinum(II)-tetrahydrate]
LD50 values (Slc:ICR mice): >150 mg/kg

Bis(2-propenylacrylate)(trans-ℓ-dach)platinum(II) [XXX-1]
LD50 values (Slc:ICR mice): 77 mg/kg

N-(4-methoxycarbonylphenyl)maleamido-hydroxo(trans-A-dach)platinum(II) [XXIX-3]
LD50 values (Slc:ICR mice): 48 mg/kg
